The nature of this data set: Pharmacokinetic study in nitroglycerin-induced migraine model rats (plasma, HPLC-MS/MS). Conditions: for CL/F / MRT last / MRT inf / Vd/F / half-life: female, Sprague-Dawley, po; for CL/F: read-out: CL z/F (converted); for MRT last: read-out: MRT (0 − t); for MRT inf: read-out: MRT (0 − ∞); for Vd/F: read-out: V z/F; for half-life: read-out: t1/2z (converted); for clearance rate (CL z/F), administration-alone group higher than the coadministration group: single administration versus PI coadministration. It is filed as in vivo, rat. On the procedure: Healthy Sprague-Dawley (SD) female rats weighing 180 g ± 20 were provided by Hunan SJA Laboratory Animal Co., Ltd. (animal license number: SCXK (Xiang) 2016-0002). Rats underwent adaptive feeding for one week and were fasted for 12 h. Rats had open access to water throughout the study. For pharmacokinetic analysis, 18 SD rats were randomly divided into 3 groups and 0.4 mL of nitroglycerin (dosage: 10 mg/kg) was injected into the forehead to establish the migraine model. […] For blood sampling, 0.3 mL of blood was taken from the rat orbit prior to drug administration and 0, 5, 15, 30, and 45 min and 1, 2, 4, 6, 8, 10, 12, and 24 h after administration. These blood samples were collected into EP tubes coated with heparin sodium. After centrifugation at 4000 rmp for 10 min, supernatants were collected and stored at −80°C.
The mixture was vortexed for 3 min and centrifuged for 10 min at 13000 rpm. 200 μL of supernatants was collected for LC/MS analysis. For GAS and PA assessments, 50 μL of geniposide (IS: 350 ng/mL) and 250 μL of methanol were added to 50 μL of the plasma sample. The mixture was vortexed for 3 min and centrifuged for 10 min at 13000 rpm. 200 μL of supernatants was collected into centrifuge tubes, dried in nitrogen, and dissolved in 200 μL of 5% acetonitrile solution (95 : 5, v : v).
For pharmacokinetic studies, the AB Sciex Triple Quad™ 4500 was used for detection. […] A flow rate of 0.5 mL/min was used with an injection volume of 2 μL. The gradient elution was 0.0–1.2 min, 5% B; 1.2–6.0 min, 5–35% B; 6.0–8.5 min, 35–95% B; 8.5–9.0 min, 5% B; and 9.0–10.0 min, 5% B. Under mass spectrometry conditions, the ESI positive ion mode with multiple reaction monitoring (MRM) was used for detection using the following parameters: ion source temperature = 550°C; ion spray voltage = 4500 V; curtain gas (nitrogen) = 25 psi; atomizing gas (GS 1) = 50 psi; auxiliary gas (GS 2) = 50 psi. […] The IS was pyrrolidone hydrochloride, m/z 357.1–134.1 (DP: 85 V; CE: 35 eV). For GAS and PA, the column temperature was controlled at 40°C; phase A was 0.1% aqueous formic acid, and phase B was acetonitrile; flow rate was 0.5 mL/min; injection volume was 2 μL. The gradient elution was as follows: 0.0–1.2 min, 5% B; 1.2–8.0 min, 5–95% B; 8.0–9.0 min, 95–5% B; 9.0–10.0 min, 5% B; […]. For mass spectrometry, the ESI negative ion mode with MRM mode detection was employed. Mass spectrometry parameters were as follows: ion source temperature = 550°C; ion spray voltage = −4500 V; curtain gas (nitrogen) = 25 psi; atomizing gas (GS 1) = 50 psi; auxiliary gas (GS 2) = 50 psi. Ion pairs were as follows: GAS, m/z 331.1–123.0 (DP: −60 V; CE: −20 V); PA, m/z 995.1–726.9 (DP: −165 V; CE: −39 V). The IS was geniposide, m/z 433.0–225 (DP: −165 V; CE: −20 eV).
DAS 3.2.8 software was used to analyze the plasma concentrations in the different groups across all experimental time points. Time-concentration curves were drawn using Sigma Plot 10.0. For lipidomics, raw data were converted to the common (mzData) format using Agilent MassHunter Qualitative Analysis B.08.00 software (Agilent Technologies, USA). In the R software platform, the XCMS program was used to assess peak identification times, retention time correction, and automatic integration pretreatments. Data were subjected to IS and weight normalization. Visualization matrices containing the sample name, m/z-RT pair, and peak area were obtained. […] After editing, data matrices were imported into SIMCA-P 13.0 (Umetrics, Umea, Sweden), mean-centered, and scaled to Pareto variance. Multivariate analysis was then conducted.

The mark [1] stands for this setting: Combine: PI coadministered (ISO 40 mg/kg, PA 372.4 mg/kg) intragastric, migraine model rats, plasma.
Where [2] appears, read: PI coadministration versus single administration, migraine model rats.
Setting [3] is: Single: PA alone 372.4 mg/kg intragastric, migraine model rats, plasma.
Setting [4] is: rat, in vivo, Single: PA alone 372.4 mg/kg intragastric, migraine model rats, plasma.
Setting [5] is: Single: ISO alone 40 mg/kg intragastric, migraine model rats, plasma.

This note sets out measurements from paper PMC7362284, “Pharmacokinetic and Lipidomic Assessment of the In Vivo Effects of Parishin A-Isorhynchophylline in Rat Migraine Models” (Journal of Analytical Methods in Chemistry, 2020).

Structures are written as SMILES. Where two headings read alike, the source gives them in different places.

For the compound `OCc1ccc(O[C@@H]2O[C@H](CO)[C@@H](O)[C@H](O)[C@H]2O)cc1` [GAS, gastrodin], under setting [1], the “AUC (0 − t)” value stood at 12757.67 μg/L ∗ h, the “AUC (0 − ∞)” value was determined as 13028.09 μg/L ∗ h, the C-max is 3853.50 µg/L and the T-max was found to be 1.08 h. Besides, under setting [2], the “AUC, coadministration higher than the administration-alone group” value was determined as 1.31 fold; the “MRT, coadministration higher than the single-administration group” value worked out at 1.84 fold; the “half-life (t1/2z), coadministration higher than the administration-alone group” value (shortened to “half-life (t1/2z)”) was 2.79 fold. Besides, under setting [3], the “AUC (0 − t)” value is given as 9934.28 μg/L ∗ h, the “AUC (0 − ∞)” value is reported as 9935.51 μg/L ∗ h, the C-max is 4082.17 µg/L and the T-max is 0.83 h. Besides, under setting [4], the CL/F is 640 mL/min/kg, the MRT last is 2.14 h, the MRT inf came to 2.15 h and the Vd/F was 56.6 L/kg. Also, the half-life under setting [4] was 1.02 h.

Turning to `CC[C@H]1CN2CC[C@@]3(C(=O)Nc4ccccc43)[C@@H]2C[C@@H]1/C(=C\OC)C(=O)OC` [ISO, isorhynchophylline], under setting [1], the “AUC (0 − t)” value came out at 1755.85 μg/L ∗ h, the “AUC (0 − ∞)” value amounted to 1768.51 μg/L ∗ h, the C-max came out at 867.07 µg/L and the T-max is recorded as 0.58 h. Further, under setting [2], the “AUC, coadministration higher than the administration-alone group” value is reported as 1.31 fold and the “half-life (t1/2z)” value came out at 1.99 fold. Moreover, under setting [5], the “AUC (0 − t)” value was determined as 1340.01 μg/L ∗ h, the “AUC (0 − ∞)” value came to 1340.09 μg/L ∗ h, the C-max worked out at 645.28 µg/L and the T-max amounted to 0.54 h. For the same compound, under “rat, in vivo, 40 mg/kg”, the CL/F is 1480 mL/min/kg, the MRT last came to 1.76 h, the MRT inf was found to be 1.77 h and the Vd/F came to 242 L/kg. Further, the half-life (rat, in vivo, 40 mg/kg) is 1.9 h. Moreover, the “clearance rate (CL z/F), administration-alone group higher than the coadministration group” value (migraine model rats) worked out at 3.15 fold.

For the compound `O=C(CC(O)(CC(=O)OCc1ccc(O[C@@H]2O[C@H](CO)[C@@H](O)[C@H](O)[C@H]2O)cc1)C(=O)OCc1ccc(O[C@@H]2O[C@H](CO)[C@@H](O)[C@H](O)[C@H]2O)cc1)OCc1ccc(O[C@@H]2O[C@H](CO)[C@@H](O)[C@H](O)[C@H]2O)cc1` [PA, parishin A], under “rat, in vivo”, the stability in plasma entry is “unstable” and the stability in rats result is given as “unstable”.

As to `CC[C@H]1CN2CC[C@]3(C(=O)Nc4ccccc43)[C@@H]2C[C@@H]1/C(=C\OC)C(=O)OC` [RHY, rhynchophylline], under setting [1], the “AUC (0 − t)” value was 412.82 μg/L ∗ h, the “AUC (0 − ∞)” value stood at 455.57 μg/L ∗ h, the C-max came to 94.10 µg/L and the T-max was 0.96 h. In addition, under setting [2], the “AUC, coadministration higher than the administration-alone group” value was 1.44 fold and the “half-life (t1/2z)” value turned out to be 3.46 fold. For the same compound, under setting [5], the “AUC (0 − t)” value was 313.95 μg/L ∗ h, the “AUC (0 − ∞)” value amounted to 314.00 μg/L ∗ h, the C-max is 88.35 µg/L and the T-max was 0.63 h. For the same compound, under “rat, in vivo, 40 mg/kg”, the CL/F is 5530 mL/min/kg, the MRT last stood at 3.21 h, the MRT inf amounted to 3.21 h and the Vd/F was 663 L/kg. Further, the half-life (rat, in vivo, 40 mg/kg) is 1.63 h. For the same compound, where the note is “migraine model rats”, the “clearance rate (CL z/F), administration-alone group higher than the coadministration group” value stood at 3.16 fold.
